Reference: paper PMC10783051 (Microbiology Spectrum, 2023)

Test system: Streptomyces venezuelae ATCC 10712
Assay: Confrontation assay B. velezensis GA1 / S. venezuelae on REM plate, UPLC-MS metabolite profiling of the agar
Conditions: gelified REM, 3 days at 26°C
Description: Confrontation assays were performed on square Petri dishes (12 × 12 cm) with 40 mL of REM solid medium at 26°C (REM supplemented with 14 g/L of agar).
S. venezuelae ATCC 10712 was inoculated as stripes (1 × 12 cm) in the middle of the plate with 40 µL of spore suspension (10^7 spores/mL) and spread with a cotton swab. Next, B. velezensis GA1 cells were collected from fresh precultures as described and adjusted to OD600 nm 0.1. Then, 5 µL of B. velezensis GA1 suspension was spotted at 1 cm of the Streptomyces line. Control plates were done following the same procedure without the inoculation of either Bacillus or Streptomyces. Plates were then incubated for 3 days at 26°C in the dark. Pictures of the plates were then captured using a CoolPix camera (NIKKOR ×60 wide optical zoom extra-low dispersion vibration reduction 4.3–258.0 mm 1:33 to 6.5).
The extraction of the metabolites from the agar was performed as follows. For the confrontation experiment, we precisely sampled the area of agar (2 × 1 cm) near the colony of Bacillus or Streptomyces (the confrontation zone is 1 cm wide) with standardized plugs. For the in planta, we sampled the agar area (1 × 1 cm) near the tomato roots. In both cases, the agar samples were transferred to Eppendorf tubes and placed for 24 h at −20°C. Then, the agar was thawed at room temperature and centrifuged for 10 min at 13,000 rpm. The supernatants were then collected and filtered (0.22-µm pore size filters) before UPLC-MS analysis.
All UPLC-MS analyses were performed using an Agilent 1290 Infinity II coupled with a diode array detector and a mass detector (Jet Stream ESI-Q-TOF 6530) in positive mode with the parameters set up as follows: capillary voltage of 3.5 kV, nebulizer pressure of 35 lb/in^2, drying gas of 8 L/min, drying gas temperature of 300°C, flow rate of sheath gas of 11 L/min, sheath gas temperature of 350°C, fragmentor voltage of 175 V, skimmer voltage of 65 V, and octopole radiofrequency of 750 V. Accurate mass spectra were recorded in the m/z range of 300–1,700. For untargeted MS/MS, we used the same MS1 parameters as described. We added MS2 untargeted acquisition mode with the parameters as follows: MS/MS range 50–1,700 m/z; MS/MS scan rate 3 spectra/s; isolation width MS/MS medium (approx. 4 AMU), Decision Engine Native; fixed collision energies of 25 and 40 V for surfactin, 50 V for iturin, and 60 V for fengycin experiments; precursor selection: three for the surfactin experiment, four for the iturin and fengycin experiments, threshold 1,500 (Abs), isotope model common, active exclusion after two spectra and release after 0.5 min, sorting the precursors by charge state then abundance (charge state preference 1). For targeted MS/MS, we used the same MS1 parameters MS/MS range of 50–1,700 m/z or 50–3,200 (when required for Pseudomonas CLPs with mass >1,700 Da), MS/MS scan rate 3 spectra/s, isolation width MS/MS narrow (approx. 1.3 amu), and fixed collision energies 20, 40, and 60V. In all experiments, a C18 Acquity UPLC ethylene bridged hybrid column (2.1 mm × 50 mm × 1.7 µm; Waters Corporation, Milford, MA, USA) was used at a flow rate of 0.6 mL/min and a temperature of 40°C. The injection volume was 20 µL, and the diode array detector scanned a wavelength spectrum between 190 and 600 nm. Unless otherwise mentioned, a gradient of acidified water (0.1% formic acid) (solvent A) and of acidified acetonitrile (0.1% formic acid) (solvent B) was used as mobile phase with a constant flow rate of 0.6 mL/min, starting at 10% B and rising to 100% B in 20 min. Solvent B was kept at 100% for 4 min before going back to the initial ratio. MassHunter Workstation (version 10.0) and ChemStation software were used for data collection and analysis. For untargeted analysis of iturin and fengycin degradation products, we used the same solvent and flow rate, starting at 10% B to 20% in 2 min, then rising to 50% B at 14 min and 100% B at 25 min, followed by 100% B and 5 at 10% B at 6 min.

With iturin the “shorter CLP fragment detected in the confrontation zone but not in Bv monoculture” value (UPLC-MS, MS/MS) was “loss of asparagine in position 3” and the “abundance of the CLP in the confrontation zone compared with monocultures” value (agar extract of confrontation zone, UPLC-Q-TOF-MS peak areas, three biological replicates) was “decrease in the abundance”.
